pIC50: −log10 of the molar value.
What was measured:
[1] = system: H-1299 cells; experiment: TUNEL apoptosis assay (Part 2); format: cell-based, human; conditions: H-1299, 20 or 40 μM, 24 hours
[2] = system: HCT-116 cells; experiment: Measurement of reactive oxygen species (DCFH-DA); format: cell-based, human; conditions: HCT-116, 40 μM, after two hours
Text: The assay employed the cell-permeable fluorogenic probe 2′,7′-dichlorodihydrofluorescin diacetate [DCFH-DA] (Sigma Aldrich, St. […] In brief, DCFH-DA is diffused into cells and is deacetylated by cellular esterases to non-fluorescent 2′,7′-dichlorodihydrofluorescin (DCFH), which is rapidly oxidized to highly fluorescent 2′,7′-dichlorodihydrofluorescein (DCF) by intracellular hydrogen peroxide, or other low molecular weight peroxides. Measured fluorescence intensity is thus proportional to the amount of such peroxides in the cell at a given time. Human colon cancer cells HCT-116 or HT-29 were seeded in 96-well black-sided, clear-bottomed culture plates, with 5000 cells/well and were allowed to adhere for 24 hours in a 37° C. incubator with 5% CO2. […] After desired incubation times of 0, 2, 4, 8, or 24 hours, media and test compounds were aspirated. Cells were washed three times with 200 μL PBS before addition of 100 μL 1 mM DCF-DA. The fluorogenic probe permeated cell membranes and was processed to DCF for one hour at 37° C. After incubation, plates were immediately placed in a Biotek microplate reader to measure fluorescence at wavelengths of 485 (excitation) and 528 (emission). Raw values were normalized to DMSO control for each time point and are presented as fold induction versus 0 hour time point (n=3).

[3] = system: H-1299 human lung cancer cells; experiment: MTT growth inhibition of human cancer cells, 24 h (Part 1); format: cell-based; conditions: H-1299, 24 h, 0 to 80 μM
Experimental: (§1) The reading reflected the number of viable cells and was expressed as a percentage of viable cells in the control. Both HCT-116 and H-1299 cells were cultured in McCoy's 5A medium. All of the above media were supplemented with 10% fetal bovine serum, 1% penicillin/streptomycin, and 1% glutamine, and the cells were kept in a 37° C. incubator with 95% humidity and 5% CO2.

[4] = system: HCT-116 human colon cancer cells; experiment: as above; format: cell-based; conditions: HCT-116, 24 h, 0 to 80 μM
Experimental: as §1

[5] = Kinetic study of [6]-shogaol metabolism to M6 in liver microsomes; conditions: human liver microsomes 0.1 mg/mL, 30 min, [6]-shogaol 7.8 to 2000 μM
Experimental: To estimate kinetic parameters of metabolism of [6]-shogoal to major product M6 in liver microsomes from human and other species, the incubation conditions were optimized to ensure that formation rate of M6 was in the linear range in relation to incubation time and protein concentration. [6]-Shogaol (7.81, 15.63, 31.25, 62.5, 125, 250, 500, 1000, and 2000 μM) was incubated with liver microsomes from mouse (MLM), rat (RLM), dog (DLM), monkey (CyLM), and human (HLM) (0.1 mg/mL each, respectively) for 30 minutes. All incubations were performed in triplicate. The apparent Km and Vmax values were calculated from analysis of experimental data according to the Michaelis-Menten equation, and the results were graphically represented (for HLM) by an Eadie-Hofstee plot. Kinetic constants were reported as the value+/−S.E. of the parameter estimate.

[6] = system: HCT-116, HT-29, H-1299, and CL-13 cancer cell lines; experiment: Metabolism of [6]-shogaol in cancer cells; format: in vitro ADME; conditions: 10 μM, HCT-116, HT-29, H-1299, CL-13, up to 24 h
Experimental: Cells (1.0×10^6) were plated in six-well culture plates and were allowed to attach for 24 h at 37° C. in 5% CO2 incubator. [6]-Shogaol [in dimethyl sulfoxide (DMSO)] was added to McCoy's 5A medium (containing 10% fetal bovine serum, 1% penicillin/streptomycin, and 1% glutamine) to reach a final concentration of (10 μM) and was incubated with different cancer cell lines (HCT-116, HT-29, H-1299, and CL-13). At different time points (0, 30 min, 1, 2, 4, 6, 8, and 24 h), 190-μl samples of supernatant were taken and transferred to vials containing (10 μl) of 0.2% ascorbic acid to stabilize [6]-shogaol and its metabolites. The metabolites were extracted from media by addition of equal volume of acetonitrile and centrifugation, in which the supernatant was harvested. The samples were then diluted 5-fold in acetonitrile and were analyzed by HPLC ECD.

pIC50 [3] | pIC50 [4] | Km ([5]; read-out: Km of M6 formation) [µM] | metabolism in cancer cell lines [6] | SMILES | induction of apoptosis (TUNEL) versus DMSO [1] | ROS induction [2] | Vmax of M6 formation [5]
 |  |  |  | CCCCCC(CC(=O)CCc1ccc(O)c(OC)c1)SC[C@H](N)C(=O)O (stereo partly shown) [M2, 5-cysteinyl-[6]-shogaol] | Apoptosis was observed | greater than 2 fold | 
4.77 | 4.73 | 45.6 | extensively metabolized | CCCCC/C=C/C(=O)CCc1ccc(O)c(OC)c1 [[6]-shogaol, reference compound] |  |  | 10.82+/−0.47 nanomoles per minute per milli

— US9549911B2, “Ginger metabolites and uses thereof” (North Carolina A&T State University, priority 2012, dated 2017)
